Source: patent publication US10759751B2, “Substituted spirocyclohexanes as muscarinic M1 receptor and/or M4 receptor agonists” (Heptares Therapeutics Limited, priority 2016, dated 2020)

Assays:
[1] = target: T1, human muscarinic M4 receptor (Homo sapiens, UniProt P08173); experiment: Alphascreen Surefire phospho-ERK1/2 functional assay, M4; assay type: cell-based; conditions: for EC50: read-out: pEC50 M4 (converted); for Emax: CHO, read-out: M4 % Emax cf. ACh, CHO cells stably expressing human M4; for Emax / M4 % Emax cf. ACh: Emax relative to ACh
T1 construct: expressed in transfected cells
T1 sequence (P08173 1-479): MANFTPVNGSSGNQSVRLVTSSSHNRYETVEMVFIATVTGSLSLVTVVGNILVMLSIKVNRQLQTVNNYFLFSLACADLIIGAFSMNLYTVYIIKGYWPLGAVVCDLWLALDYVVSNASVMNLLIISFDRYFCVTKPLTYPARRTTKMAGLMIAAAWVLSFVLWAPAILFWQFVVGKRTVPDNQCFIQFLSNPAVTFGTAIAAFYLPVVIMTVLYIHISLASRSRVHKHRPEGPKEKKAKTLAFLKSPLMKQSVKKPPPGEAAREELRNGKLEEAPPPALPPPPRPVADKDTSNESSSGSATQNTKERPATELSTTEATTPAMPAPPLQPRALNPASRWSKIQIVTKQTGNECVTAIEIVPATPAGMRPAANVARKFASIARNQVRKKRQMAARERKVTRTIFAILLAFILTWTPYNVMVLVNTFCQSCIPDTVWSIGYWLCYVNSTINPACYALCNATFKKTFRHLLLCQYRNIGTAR
Description: (§1) Functional assays were performed using the Alphascreen Surefire phospho-ERK1/2 assay (Crouch & Osmond, Comb. Chem. High Throughput Screen, 2008). ERK1/2 phosphorylation is a downstream consequence of both Gq/11 and Gi/o protein coupled receptor activation, making it highly suitable for the assessment of M1, M3 (Gq/11 coupled) and M2, M4 receptors (Gi/o coupled), rather than using different assay formats for different receptor subtypes. CHO cells stably expressing the human muscarinic M1, M2, M3 or M4 receptor were plated (25K/well) onto 96-well tissue culture plates in MEM-alpha+10% dialysed FBS. Once adhered, cells were serum-starved overnight. Agonist stimulation was performed by the addition of 5 μL agonist to the cells for 5 min (37° C.). Media was removed and 50 μL of lysis buffer added. After 15 min, a 4 μL sample was transferred to 384-well plate and 7 μL of detection mixture added. Plates were incubated for 2 h with gentle agitation in the dark and then read on a PHERAstar plate reader.
(§2) pEC50 and Emax figures were calculated from the resulting data for each receptor subtype.

[2] = target: T2, human muscarinic M1 receptor (Homo sapiens, UniProt P11229); experiment: Alphascreen Surefire phospho-ERK1/2 functional assay, M1; assay type: cell-based; conditions: for EC50 / M1 % Emax cf. ACh: CHO cells stably expressing human M1; for EC50: phospho-ERK1/2, read-out: pEC50 M1 (converted); for Emax: CHO, read-out: M1 % Emax cf. ACh, CHO cells stably expressing human M1; for Emax / M1 % Emax cf. ACh: Emax relative to ACh; for selectivity for the M1 receptor relative to the M4 receptor: M1 versus M4, in words
T2 sequence (P11229 1-460): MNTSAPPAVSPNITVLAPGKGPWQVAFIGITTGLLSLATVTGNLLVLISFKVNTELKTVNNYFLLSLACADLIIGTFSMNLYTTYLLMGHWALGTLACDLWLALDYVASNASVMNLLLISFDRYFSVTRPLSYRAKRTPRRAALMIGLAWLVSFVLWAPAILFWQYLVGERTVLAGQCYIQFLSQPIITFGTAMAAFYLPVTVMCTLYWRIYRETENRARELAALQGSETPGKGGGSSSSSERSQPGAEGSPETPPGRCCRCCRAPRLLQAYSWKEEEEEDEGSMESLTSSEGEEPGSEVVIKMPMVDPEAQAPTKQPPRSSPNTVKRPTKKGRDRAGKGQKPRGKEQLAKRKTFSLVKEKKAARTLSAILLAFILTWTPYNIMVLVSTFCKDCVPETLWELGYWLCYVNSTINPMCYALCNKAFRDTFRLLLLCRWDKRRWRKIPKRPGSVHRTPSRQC
Description: as §1, §2

[3] = CHO cells stably expressing human M4, phospho-ERK1/2
[4] = CHO cells stably expressing human M4

Compound | EC50 [1, 3] [nM] | Emax [1] [%] | EC50 [2] [nM] | Emax [2] [%] | M4 % Emax cf. ACh [1, 4] [%] | pEC50 M4 [1, 3] | M1 % Emax cf. ACh [2] [%] | selectivity for the M1 receptor relative to the M4 receptor [2]
CCOC(=O)N1CC2(CCN(C3CCC4(CC3)C(=O)Nc3ccccc34)C2)C1 (mixture of isomers) [10-1 mixture of isomers] | > 20000 | 8 | 38.9 | 39 |  |  |  | 
CCOC(=O)N[C@@H]1CCN(C2CCC(C#N)(c3cccc(F)c3)CC2)C1 (single isomer, unassigned) [1-6 Isomer 2] | 1780 | 49 | 229 | 116 |  |  |  | 
CCOC(=O)N[C@H]1CCN(C2CCC(C#N)(c3ccc(Cl)cn3)CC2)C1 (single isomer, unassigned) [1-15 Isomer 2] | > 20000 | 7 | 269 | 39 |  |  |  | 
CCOC(=O)N[C@@H]1CCN(C2CCC3(CC2)C(=O)Nc2ccccc23)C1 (single isomer, unassigned) [2-2 isomer 1] | 871 | 84 | 158 | 103 |  |  |  | 
CCOC(=O)N[C@H]1CCN(C2CCC3(CC2)C(=O)Nc2c(C)cccc23)C1 (single isomer, unassigned) [2-3 isomer 1] | > 20000 | 1 | 77.6 | 32 |  |  |  | 
CCOC(=O)N[C@H]1CCN(C2CCC3(CC2)C(=O)Nc2cc(F)ccc23)C1 (single isomer, unassigned) [2-7 isomer 1] |  |  | 1780 |  | 1 | < 4.7 | 35 | 
CCOC(=O)N[C@H]1CCN(C2CCC3(CC2)C(=O)Nc2ccc(F)cc23)C1 (single isomer, unassigned) [2-8 isomer 1] | > 20000 | 10 | 93.3 | 59 |  |  |  | 
CCOC(=O)N[C@H]1CCN(C2CCC3(CC2)C(=O)Nc2cc(OC)ccc23)C1 (single isomer, unassigned) [2-9 isomer 1] | > 20000 | 51 | 282 | 77 |  |  |  | 
CCOC(=O)N[C@H]1CCN(C2CCC3(CC2)C(=O)N(C(=O)OCC)c2ccccc23)C1 (single isomer, unassigned) [2-14 isomer 2] | > 20000 | 56 | 117 | 77 |  |  |  | 
CCOC(=O)N[C@H]1CCN(C2CCC3(CC2)C(=O)Nc2cnc(OC)cc23)C1 (single isomer, unassigned) [2-19 isomer 1] | > 20000 | 19 | 2090 | 63 |  |  |  | 
CCOC(=O)N[C@H]1CCN(C2CCC3(CC2)C(=O)Nc2ccc(OC)nc23)C1 (single isomer, unassigned) [2-20 isomer 1] | > 20000 | 16 | 372 | 32 |  |  |  | 
CCOC(=O)N(C)[C@@H]1CCN(C2CCC3(CC2)C(=O)Nc2cccnc23)C1 (single isomer, unassigned) [2-21 isomer 2] | 245 | 86 | 468 | 58 |  |  |  | 
C/C=C/C(=O)N1CCCN(C2CCC3(CC2)C(=O)Nc2ccccc23)CC1 (single isomer, unassigned) [4-4 isomer 2] | > 20000 | 12 | 257 | 48 |  |  |  | 
CCOC(=O)N1CCCN(C2CCC3(CC2)C(=O)Nc2cc(C)ccc23)CC1 (single isomer, unassigned) [4-6 isomer 1] | 3240 |  | 575 |  | 26 |  | 85 | 
CCOC(=O)N1CCCN(C2CCC3(CC2)C(=O)Nc2cccc(C)c23)CC1 (single isomer, unassigned) [4-8 isomer 1] | 380 |  | 1100 |  | 52 |  | 67 | 
CCOC(=O)N1CCCN(C2CCC3(CC2)C(=O)Nc2cc(C#N)ccc23)CC1 (single isomer, unassigned) [4-13 isomer 2] | 347 | 39 | 955 | 38 |  |  |  | 
CCOC(=O)N1CCCN(C2CCC3(CC2)C(=O)Nc2ccc(C#N)cc23)CC1 (single isomer, unassigned) [4-14 isomer 1] | > 20000 | 24 | 977 | 76 |  |  |  | 
CCOC(=O)N1CCCN(C2CCC3(CC2)C(=O)Nc2ncc(Cl)cc23)CC1 (single isomer, unassigned) [4-16 isomer 1] | > 20000 | 5 | 891 | 60 |  |  |  | 
CCOC(=O)N1CCCN(C2CCC3(CC2)C(=O)Nc2ncc(OC)cc23)CC1 (single isomer, unassigned) [4-17 isomer 2] | > 20000 | 19 | 437 | 89 |  |  |  | 
CCOC(=O)N1CCCN(C2CCC3(CC2)CN(S(C)(=O)=O)c2ncccc23)CC1 (single isomer, unassigned) [4-19 isomer 1] | 324 | 97 | 6760 | 104 |  |  |  | 
CCOC(=O)N1CCCN(C2CCC3(CC2)C(=O)Nc2ccc(OC)nc23)CC1 (single isomer, unassigned) [4-24 isomer 1] | 316 | 61 | 813 | 75 |  |  |  | 
CCOC(=O)NC1CCN(C2CCC3(CC2)C(=O)Nc2ccccc23)CC1 (single isomer, unassigned) [7-1 isomer 1] | 158 | 26 | 257 |  |  |  | 112 | 
CCOC(=O)NC1CCN(C2CCC3(CC2)C(=O)Nc2ccccc23)CC1 (single isomer, unassigned) [7-1 isomer 2] | 282 |  | 490 |  | 20 |  | 68 | 
CCOC(=O)N1CCCN(C2CCC(C#N)(c3ccc(OCC)cn3)CC2)CC1 (centres unmarked) [Example 3-20, ethyl 4-[4-cyano-4-(5-ethoxypyridin-2-yl)cyclohexyl]-1,4-diazepane-1-carboxylate] |  |  |  |  |  |  |  | highly selective for the M1 receptor relative to the M4 receptor
C#CCOC(=O)N1CCCN(C2CCC(C#N)(c3ccc(OC)cn3)CC2)CC1 (centres unmarked) [Example 3-31, prop-2-yn-1-yl 4-[4-cyano-4-(5-methoxypyridin-2-yl)cyclohexyl]-1,4-diazepane-1-carboxylate] |  |  |  |  |  |  |  | highly selective for the M1 receptor relative to the M4 receptor
CC#CCOC(=O)N1CCCN(C2CCC(C#N)(c3ccc(OC)cn3)CC2)CC1 (centres unmarked) [Example 3-32, but-2-yn-1-yl 4-[4-cyano-4-(5-methoxypyridin-2-yl)cyclohexyl]-1,4-diazepane-1-carboxylate] |  |  |  |  |  |  |  | highly selective for the M1 receptor relative to the M4 receptor
CCOC(=O)N1CCCN(C2CCC3(CC2)C(=O)Nc2ccc(C)cc23)CC1 (centres unmarked) [Example 4-7, ethyl 4-(5′-methyl-2′-oxo-1′,2′-dihydrospiro[cyclohexane-1,3′-indol]-4-yl)-1,4-diazepane-1-carboxylate] |  |  |  |  |  |  |  | highly selective for the M1 receptor relative to the M4 receptor
CCOC(=O)N1CCCN(C2CCC3(CC2)C(=O)Nc2ccc(OC)cc23)CC1 (centres unmarked) [Example 4-12, ethyl 4-(5′-methoxy-2′-oxo-1′,2′-dihydrospiro[cyclohexane-1,3′-indol]-4-yl)-1,4-diazepane-1-carboxylate] |  |  |  |  |  |  |  | highly selective for the M1 receptor relative to the M4 receptor
CCOC(=O)N1CCCN(C2CCC(c3nc(CC)c(C)[nH]3)CC2)CC1 (centres unmarked) [Example 5-1, ethyl 4-[4-(4-ethyl-5-methyl-1H-imidazol-2-yl)cyclohexyl]-1,4-diazepane-1-carboxylate] |  |  |  |  |  |  |  | highly selective for the M1 receptor relative to the M4 receptor
